The test concerns L1210 leukemia ip in BDF1 mice, survival T/C. Description: NCI In Vivo Anticancer Drug Screen. Data for tumor model L1210 Leukemia (intraperitoneal) in B6D2F1 (BDF1) mice. Conditions: higher = longer survival. The gist of the method: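 Transplantable tumor model; survival measured in treated vs vehicle control mice. Value = treated/control.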

This note sets out measurements from PubChem BioAssay AID248 (DTP/NCI, 2004).

“And” between values parts separate entries of the source, which are not always exact repeats. Equal values may be shown once. Toxic doses and inconclusive results are not listed.

Turning to `CO[C@@]12[C@H](COC(N)=O)C3=C(C(=O)C(C)=C(N)C3=O)N1C[C@@H]1N[C@@H]12`, the T/C is 110 % of control (endpoint: mean survival time, dose: 0.1 mg/kg/injection, schedule: Q01DX Z (ip), vehicle: carboxymethylcellulose (CMC)); 106 % of control and 110 % of control (endpoint: mean survival time, dose: 0.18 mg/kg/injection, schedule: Q04DX002 (ip), vehicle: saline); 110 % of control (endpoint: mean survival time, dose: 0.2 mg/kg/injection, schedule: Q01DX Z (ip), vehicle: carboxymethylcellulose (CMC)); 118 % of control (endpoint: mean survival time, dose: 0.2 mg/kg/injection, schedule: Q02DX010 (ip), vehicle: carboxymethylcellulose (CMC)); 107 % of control (endpoint: mean survival time, dose: 0.25 mg/kg/injection, schedule: Q01DX Z (ip), vehicle: carboxymethylcellulose (CMC)); 98 % of control (endpoint: mean survival time, dose: 0.32 mg/kg/injection, schedule: Q01DX Z (ip), vehicle: carboxymethylcellulose (CMC)). In addition, the T/C is 120 % of control (endpoint: mean survival time, dose: 0.35 mg/kg/injection, schedule: Q01DX009 (ip), vehicle: saline); 103 % of control (endpoint: mean survival time, dose: 0.35 mg/kg/injection, schedule: Q04DX002 (ip), vehicle: saline); 114 % of control and 116 % of control (endpoint: mean survival time, dose: 0.4 mg/kg/injection, schedule: Q01DX Z (ip), vehicle: carboxymethylcellulose (CMC)); 111 % of control and 90 % of control (endpoint: mean survival time, dose: 0.4 mg/kg/injection, schedule: Q02DX010 (ip), vehicle: carboxymethylcellulose (CMC)); 107 % of control and 122 % of control (endpoint: mean survival time, dose: 0.5 mg/kg/injection, schedule: Q01DX Z (ip), vehicle: carboxymethylcellulose (CMC)); 114 % of control (endpoint: mean survival time, dose: 0.53 mg/kg/injection, schedule: Q01DX Z (ip), vehicle: carboxymethylcellulose (CMC)). For the same molecule, the T/C was 109 % of control (endpoint: mean survival time, dose: 0.7 mg/kg/injection, schedule: Q01DX001 (ip), vehicle: saline); 103 % of control and 111 % of control (endpoint: mean survival time, dose: 0.7 mg/kg/injection, schedule: Q04DX002 (ip), vehicle: saline); 118 % of control (endpoint: mean survival time, dose: 0.75 mg/kg/injection, schedule: Q01DX001 (ip), vehicle: water); 104 % of control and 121 % of control (endpoint: mean survival time, dose: 0.8 mg/kg/injection, schedule: Q02DX010 (ip), vehicle: carboxymethylcellulose (CMC)); 117 % of control (endpoint: mean survival time, dose: 0.86 mg/kg/injection, schedule: Q02DX010 (ip), vehicle: carboxymethylcellulose (CMC)); 157 % of control and 219 % of control (endpoint: mean survival time, dose: 0.9 mg/kg/injection, schedule: Q02DX010 (ip), vehicle: other). For the same molecule, the T/C is 114 % of control (endpoint: mean survival time, dose: 0.96 mg/kg/injection, schedule: Q01DX001 (ip), vehicle: acetone); 111 % of control (endpoint: mean survival time, dose: 1.0 mg/kg/injection, schedule: Q01DX001 (ip), vehicle: saline); 161 % of control (endpoint: mean survival time, dose: 1.0 mg/kg/injection, schedule: Q01DX Z (ip), vehicle: carboxymethylcellulose (CMC)); 155 % of control (endpoint: mean survival time, dose: 1.1 mg/kg/injection, schedule: Q01DX009 (ip), vehicle: saline); 171 % of control (endpoint: mean survival time, dose: 1.12 mg/kg/injection, schedule: Q01DX015 (ip), vehicle: carboxymethylcellulose (CMC)); 162 % of control (endpoint: mean survival time, dose: 1.25 mg/kg/injection, schedule: Q01DX015 (ip), vehicle: saline). The T/C runs as follows: (endpoint: mean survival time, dose: 1.3 mg/kg/injection, schedule: Q02DX010 (ip), vehicle: other) 167 % of control and 207 % of control; (endpoint: mean survival time, dose: 1.4 mg/kg/injection, schedule: Q01DX001 (ip), vehicle: acetone) 111 % of control; (endpoint: mean survival time, dose: 1.4 mg/kg/injection, schedule: Q01DX009 (ip), vehicle: saline) 154 % of control and 178 % of control; (endpoint: mean survival time, dose: 1.5 mg/kg/injection, schedule: Q01DX001 (ip), vehicle: saline) 115 % of control; (endpoint: mean survival time, dose: 1.5 mg/kg/injection, schedule: Q01DX001 (ip), vehicle: water) 117 % of control; (endpoint: mean survival time, dose: 1.5 mg/kg/injection, schedule: Q07DX003 (ip), vehicle: saline) 123 % of control. In addition, the T/C was 118 % of control (endpoint: mean survival time, dose: 1.5 mg/kg/injection, schedule: Q## X003 (ip), vehicle: saline); 117 % of control (endpoint: mean survival time, dose: 1.6 mg/kg/injection, schedule: Q01DX001 (ip), vehicle: saline); 97 % of control (endpoint: mean survival time, dose: 1.9 mg/kg/injection, schedule: Q01DX009 (ip), vehicle: saline); 106 % of control (endpoint: mean survival time, dose: 2.0 mg/kg/injection, schedule: Q01DX Z (ip), vehicle: carboxymethylcellulose (CMC)); 180 % of control and 184 % of control (endpoint: mean survival time, dose: 2.0 mg/kg/injection, schedule: Q02DX010 (ip), vehicle: other); 158 % of control (endpoint: mean survival time, dose: 2.12 mg/kg/injection, schedule: Q02DX010 (ip), vehicle: carboxymethylcellulose (CMC)). Further, the T/C is 108 % of control (endpoint: mean survival time, dose: 2.2 mg/kg/injection, schedule: Q01DX001 (ip), vehicle: saline); 154 % of control (endpoint: mean survival time, dose: 2.5 mg/kg/injection, schedule: Q01DX015 (ip), vehicle: saline); 93 % of control (endpoint: mean survival time, dose: 2.8 mg/kg/injection, schedule: Q01DX009 (ip), vehicle: saline); 123 % of control (endpoint: mean survival time, dose: 3.0 mg/kg/injection, schedule: Q01DX001 (ip), vehicle: saline); 115 % of control and 118 % of control (endpoint: mean survival time, dose: 3.0 mg/kg/injection, schedule: Q02DX010 (ip), vehicle: other); 152 % of control (endpoint: mean survival time, dose: 3.0 mg/kg/injection, schedule: Q## X003 (ip), vehicle: saline). The T/C is 184 % of control (endpoint: mean survival time, dose: 3.2 mg/kg/injection, schedule: Q02DX010 (ip), vehicle: carboxymethylcellulose (CMC)); 116 % of control (endpoint: mean survival time, dose: 3.3 mg/kg/injection, schedule: Q01DX001 (ip), vehicle: saline); 86 % of control and 88 % of control (endpoint: mean survival time, dose: 4.5 mg/kg/injection, schedule: Q02DX010 (ip), vehicle: other); 118 % of control (endpoint: mean survival time, dose: 5.0 mg/kg/injection, schedule: Q01DX001 (ip), vehicle: saline); 89 % of control (endpoint: mean survival time, dose: 5.0 mg/kg/injection, schedule: Q01DX015 (ip), vehicle: saline); 196 % of control (endpoint: mean survival time, dose: 6.0 mg/kg/injection, schedule: Q01DX001 (ip), vehicle: saline). The T/C was 174 % of control (endpoint: mean survival time, dose: 6.0 mg/kg/injection, schedule: Q01DX001 (ip), vehicle: water); 84 % of control (endpoint: mean survival time, dose: 6.7 mg/kg/injection, schedule: Q02DX010 (ip), vehicle: carboxymethylcellulose (CMC)); 123 % of control (endpoint: mean survival time, dose: 7.5 mg/kg/injection, schedule: Q01DX001 (ip), vehicle: saline); 171 % of control (endpoint: mean survival time, dose: 10.6 mg/kg/injection, schedule: Q04DX002 (ip), vehicle: saline); 193 % of control (endpoint: mean survival time, dose: 11.0 mg/kg/injection, schedule: Q01DX001 (ip), vehicle: acetone); 100 % of control (endpoint: mean survival time, dose: 12.0 mg/kg/injection, schedule: Q## X003 (ip), vehicle: saline). In addition, the T/C is, setting by setting: (endpoint: mean survival time, dose: 45.0 micrograms/kg/injection, schedule: Q01DX009 (ip), vehicle: saline) 99 % of control and 117 % of control; (endpoint: mean survival time, dose: 90.0 micrograms/kg/injection, schedule: Q01DX009 (ip), vehicle: saline) 106 % of control and 120 % of control; (endpoint: mean survival time, dose: 180.0 micrograms/kg/injection, schedule: Q01DX009 (ip), vehicle: saline) 104 % of control and 120 % of control; (endpoint: mean survival time, dose: 350.0 micrograms/kg/injection, schedule: Q01DX009 (ip), vehicle: saline) 121 % of control; (endpoint: mean survival time, dose: 1400.0 micrograms/kg/injection, schedule: Q01DX009 (ip), vehicle: saline) 153 % of control; (endpoint: median survival time, dose: 1.5 mg/kg/injection, schedule: Q01DX001 (ip), vehicle: saline) 100 % of control. Besides, the T/C reads like this: (endpoint: median survival time, dose: 3.0 mg/kg/injection, schedule: Q01DX001 (ip), vehicle: saline) 109 % of control; (endpoint: median survival time, dose: 6.0 mg/kg/injection, schedule: Q01DX001 (ip), vehicle: saline) 109 % of control; (endpoint: median survival time, dose: 12.0 mg/kg/injection, schedule: Q01DX001 (ip), vehicle: saline) 117 % of control.
`CC1=NN(c2ccc(S(=O)(=O)O)cc2Cl)C(=O)C1`: the T/C (endpoint: mean survival time, dose: 100.0 mg/kg/injection, schedule: Q04DX003 (ip), vehicle: saline with Tween-80) was 101 % of control; the T/C (endpoint: mean survival time, dose: 200.0 mg/kg/injection, schedule: Q04DX003 (ip), vehicle: saline with Tween-80) is 98 % of control; the T/C (endpoint: mean survival time, dose: 400.0 mg/kg/injection, schedule: Q04DX003 (ip), vehicle: saline with Tween-80) is 90 % of control.
Turning to `CCOc1ccc(-n2c(=O)c(N=Nc3ccc(Cl)cc3)c(O)n(-c3ccccc3OC)c2=S)cc1`, the T/C (endpoint: mean survival time, dose: 37.5 mg/kg/injection, schedule: Q01DX001 (ip), vehicle: Klucel (hydroxypropylcellulose) (HPC)) was 92 % of control; the T/C (endpoint: mean survival time, dose: 75.0 mg/kg/injection, schedule: Q01DX001 (ip), vehicle: Klucel (hydroxypropylcellulose) (HPC)) is 113 % of control; the T/C (endpoint: mean survival time, dose: 150.0 mg/kg/injection, schedule: Q01DX001 (ip), vehicle: Klucel (hydroxypropylcellulose) (HPC)) is 103 % of control.
As to `COC(CNCCO)c1ccccc1` (configuration not stated), the T/C reads like this: (endpoint: mean survival time, dose: 25.0 mg/kg/injection, schedule: Q01DX009 (ip), vehicle: saline with Tween-80) 104 % of control; (endpoint: mean survival time, dose: 50.0 mg/kg/injection, schedule: Q01DX009 (ip), vehicle: saline with Tween-80) 98 % of control; (endpoint: mean survival time, dose: 100.0 mg/kg/injection, schedule: Q01DX009 (ip), vehicle: saline with Tween-80) 106 % of control.
